Measurements taken from PMC8023712, “Carboxylesterase Activities and Protein Expression in Rabbit and Pig Ocular Tissues” (Molecular Pharmaceutics, 2021).
Several values for one entry are separate records, joined by “and”; a condition that tells them apart may be missing. Identical values can stand only once. Like-named read-outs stand apart in the source and are kept apart here. Each block holds one compound with its values, some of them ahead of it.

How the values were obtained:
[1] = system: esterases in pig cornea homogenate (NPA hydrolysis); assay: Inhibition of NPA hydrolysis in pig cornea; assay type: biochemical; details: 0.1 mM NPA; for IC50: for PMSF no unique IC50, concentration giving 50% inhibition, read-out: IC50 (this study), inhibition of NPA hydrolysis
Description: (§1) NPA hydrolysis was performed with a slight modification to our previous protocol[22] in clear flat-bottom 96-well Thermo Scientific Sterilin Microtiter plates at 37 °C. Diluted ocular samples (8 μg of protein in 80 μL of PBS) were pipetted into the reaction wells, and the background absorbance was measured at 405 nm for 10 min of preincubation. […] Changes in absorbance at 405 nm were recorded with a Victor^2 Microplate Reader (PerkinElmer Wallac 1420, St. Paul, MN) for 45 min with 90 s reading intervals. 4-Nitrophenol was used to generate a standard curve (5–400 μM).
(§2) Inhibitors were tested at a final concentration range of 0.4–400 μM except for PMSF (0.3–2.5 mM).
(§3) The differences among hydrolytic activities were analyzed by ANOVA using the SigmaPlot software (Sigma Plot 13.0, Systat Software Inc., San Jose, CA), followed by Mann–Whitney U test for statistical comparisons between species and between tissues. Between species, statistically significant differences are ranked by the asterisk signs (in the order of *, p < 0.05; **, p < 0.01, and *** p < 0.001). Between tissues of the same species, statistically significant differences in comparison to conjunctiva are represented by the dagger sign (†, p < 0.05). Nonlinear regression analysis to determine the Km, Vmax, and IC50 values were done using GraphPad Prism (GraphPad, 5.04 Software Inc., San Diego, CA). For IC50, logarithms of inhibitor concentrations were plotted against the relative response (0 μM inhibitor = 100%).

most esterases = details: cited from earlier work
rhCES2 = details: cited from earlier work
[2] = system: CES2 (FDA hydrolysis in pig retina); assay: Inhibition of FDA hydrolysis in pig retina; assay type: biochemical; details: 10 μM FDA
Description: Diluted samples (5 μg of protein) were incubated at 37 °C in black 96-well Thermo Scientific Nunc F96 MicroWell plates. […] The fluorescein stock solution was used to generate a standard curve (0.156–10 μM) using 2-fold serial dilutions in 0.1 M PBS, pH 7.4.
as §2, §3

pig liver CES1 = details: NPA, read-out: Km literature data; cited from earlier work
[3] = system: multiple esterases (rabbit cornea); details: NPA, read-out: Km literature data; cited from earlier work
multiple esterases (HLM) = details: NPA, read-out: Km literature data; cited from earlier work
[4] = system: multiple esterases (rabbit ocular tissue homogenates); assay: NPA hydrolysis in rabbit ocular tissue homogenates; assay type: in vitro ADME; details: for NPA hydrolysis rate: 400 μM NPA
Description: as §1, with “St.” for “St. Paul, MN) for 45 min with 90 s reading intervals. 4-Nitrophenol was used to generate a standard curve (5–400 μM).”

[5] = system: multiple esterases (pig ocular tissue homogenates); assay: NPA hydrolysis in pig ocular tissue homogenates; assay type: in vitro ADME; details: for NPA hydrolysis rate: 400 μM NPA
Description: as §1, with “St.” for “St. Paul, MN) for 45 min with 90 s reading intervals. 4-Nitrophenol was used to generate a standard curve (5–400 μM).”

[6] = system: esterases in rabbit cornea, iris–ciliary body and aqueous humor; design: method as in PMID 16223870; details: 1000 μM; cited from earlier work
[7] = system: CES2 (pig ocular tissue homogenates); details: for FDA hydrolysis rate: 100 μM FDA
[8] = system: CES2 (rabbit ocular tissue homogenates); details: for FDA hydrolysis rate: 100 μM FDA
[9] = molecular target: CES1 (DME hydrolysis in pig cornea and conjunctiva) (Sus scrofa, UniProt F1RF16); assay: Inhibition of DME hydrolysis in pig cornea and conjunctiva; assay type: biochemical; details: 5 μM DME, at 200 μM inhibitor, read-out: Extent of inhibition of DME hydrolysis
Description: (§4) The hydrolysis of DME was monitored with slight modifications using the published bioluminescence-based assay[13],[21] where recombinant firefly luciferase enzyme was used to detect the D-luciferin that formed in the reaction mixture. The DME hydrolysis reaction was done in white-coated 96-well plates (Thermo Scientific Sterilin Microtiter Plates). Tissue lysates (5 μg of protein) were preincubated in 0.1 M PBS, pH 6.5. The reaction was initiated by adding DME to a final concentration of 5 μM in a final volume of 200 μL. The hydrolysis of DME was allowed to proceed for 20 min at 37 °C. The formed D-luciferin was quantitated by an injection of 73 μL of the luciferase detection reagent [3 μg of rLuciferase, 50 nmol of ATP, and 50 nmol of MgCl2 in PBS], and the luminescence was measured immediately with a Victor^2 Microplate Reader (560 nm, 1 s). Serial 2-fold dilutions of D-luciferin in 0.1 M PBS, pH 6.5 were used to generate the standard curve (0.156–10 μM).
as §2
(§5) The differences among hydrolytic activities were analyzed by ANOVA using the SigmaPlot software (Sigma Plot 13.0, Systat Software Inc., San Jose, CA), followed by Mann–Whitney U test for statistical comparisons between species and between tissues. […]

[10] = system: CES1 (DME hydrolysis in rabbit cornea and conjunctiva); assay: Inhibition of DME hydrolysis in rabbit cornea and conjunctiva; assay type: biochemical; details: 5 μM DME, at 200 μM inhibitor
Description: as §4, §2, §5

CES2 > CES1 (HLM) = molecular target: CES2 > CES1 (HLM); design: method as in PMID 23648675, PMID 32955894; details: read-out: Ki (literature); cited from earlier work
[11] = system: AADAC (pig ocular tissue homogenates); assay: Phenacetin hydrolysis to p-phenetidine in pig ocular tissues; assay type: in vitro ADME; details: 4 mM phenacetin, below detection limit
Description: (§6) Phenacetin, a specific substrate for human AADAC,[18],[19],[24] was incubated with ocular tissue homogenates. The substrate (4 mM, final concentration) was preincubated in the 0.1 M Tris-HCl, pH 7.4, buffer at 37 °C for 5 min, after which the tissue samples (20 μg of protein) were added to start the reaction in the total reaction volume of 200 μL. All the reaction and control samples were incubated for 50 min at 37 °C with shaking. The reaction was terminated by adding 200 μL of ice-cold ACN containing acetaminophen at an 1 μM final concentration as the internal standard, followed by centrifugation at 4 °C for 10 min at 10 000g. A standard curve using the metabolite p-phenetidine (0.1–100 μM)[24] was established. The protein amount and incubation time were optimized from earlier pilot experiments for both procaine and phenacetin hydrolysis reactions. All incubations were performed in triplicate including the controls (control with no sample, control with no substrate), and the data are expressed as mean ± SD.
(§7) The metabolites from the above CES2 and AADAC assays were analyzed using a Waters (Milford, MA) Acquity ultra-performance liquid chromatographic (UPLC) coupled with a Q-Exactive Focus Orbitrap MS (Thermo Scientific). […]

[12] = system: AADAC (rabbit ocular tissue homogenates); assay: Phenacetin hydrolysis to p-phenetidine in rabbit ocular tissues; assay type: in vitro ADME; details: 4 mM phenacetin, below detection limit
Description: as §6, §7

[13] = system: CES2 (rabbit ocular tissue homogenates); assay: Procaine hydrolysis to PABA in rabbit ocular tissues; assay type: in vitro ADME; details: 100 μM procaine
Description: (§8) Procaine, a known human CES2 substrate,[2],[17],[50] was incubated with rabbit and pig ocular tissues. After preincubation of the substrate (100 μM procaine in 0.1 M Tris-HCl, pH 7.4) at 37 °C, the reaction was initiated with tissue samples (20 μg of protein) in a total reaction volume of 200 μL. All the samples in parallel with the controls (no substrate or no enzyme) were incubated for 50 min at 37 °C on a shaker incubator (Heidolph Titramax 1000 platform shaker, Berlin Germany). The reaction was terminated by adding 200 μL of ice-cold ACN containing the internal standard procainamide (1 μM final concentration), followed by centrifugation at 4 °C for 10 min at 10 000g. Supernatants were collected for HPLC analysis. The standard curve was established using the hydrolysis product PABA with the concentration range 0.1–1000 nM.[51]
(§9) The metabolites from the above CES2 and AADAC assays were analyzed using a Waters (Milford, MA) Acquity ultra-performance liquid chromatographic (UPLC) coupled with a Q-Exactive Focus Orbitrap MS (Thermo Scientific). A Waters HSS T3 column (2.1 mm × 100 mm, 1.8 μm particle size) was used with elution gradients A (0.1% formic acid) and B (methanol) [0–0.5 min, 1% B; 0.5–4 min, 1%–20% B; 4–4.5 min, 20%–98% B; 4.5–5 min, 98% B; and 5–6 min, 98%–1% B]. The injection volume was 2 μL with a flow rate of 0.5 mL/min and a column temperature of 40 °C. […]

[14] = system: CES2 (pig ocular tissue homogenates); assay: Procaine hydrolysis to PABA in pig ocular tissues; assay type: in vitro ADME; details: 100 μM procaine
Description: as §8, §9

Sequence of CES1 (DME hydrolysis in pig cornea and conjunctiva) (F1RF16 19-530): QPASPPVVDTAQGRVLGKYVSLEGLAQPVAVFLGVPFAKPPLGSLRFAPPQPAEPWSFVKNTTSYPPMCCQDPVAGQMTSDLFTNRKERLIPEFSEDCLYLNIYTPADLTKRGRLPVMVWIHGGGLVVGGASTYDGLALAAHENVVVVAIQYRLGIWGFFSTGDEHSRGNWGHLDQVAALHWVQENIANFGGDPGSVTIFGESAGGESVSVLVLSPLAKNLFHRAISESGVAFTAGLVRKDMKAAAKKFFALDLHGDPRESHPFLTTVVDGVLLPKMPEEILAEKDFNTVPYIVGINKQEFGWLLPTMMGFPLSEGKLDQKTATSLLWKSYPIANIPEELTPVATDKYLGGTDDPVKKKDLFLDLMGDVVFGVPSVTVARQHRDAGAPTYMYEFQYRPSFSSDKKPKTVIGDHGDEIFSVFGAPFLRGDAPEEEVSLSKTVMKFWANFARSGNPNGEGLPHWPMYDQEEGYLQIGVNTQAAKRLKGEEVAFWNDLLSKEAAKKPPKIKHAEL

SMILES: O=S(=O)(F)Cc1ccccc1 [PMSF, phenylmethylsulfonyl fluoride]
- IC50 [1]: 200 µM and ~200 µM
- IC50 (most esterases; most esterases, read-out: IC50 (literature)): 541 µM
- Ki (most esterases; most esterases, read-out: Ki (literature)): 560 µM
- IC50 (most esterases; other tissues, read-out: reported IC50 value in other tissues): ~500 µM

SMILES: CC(C)(C)NC[C@H](O)COc1nsnc1N1CCOCC1 [timolol]
- inhibition (literature, printed in IC50 column) (rhCES2; main human enzyme CES2, at 200 μM): 20% inhibition at 200 μM
- Extent of inhibition of FDA hydrolysis [2]: no inhibition

- Km ([4]; NPA hydrolysis in rabbit cornea, read-out: Km (this study)): 263 ± 15 µM
- NPA hydrolysis rate ([4]; rabbit RPE): 17.5 ± 2.7 nmol/min/mg
- NPA hydrolysis rate ([4]; rabbit choroid): 81.6 ± 6.8 nmol/min/mg
- NPA hydrolysis rate ([4]; rabbit, most ocular tissue homogenates, 37 °C): 30–45 nmol/min/mg protein
- Km ([5]; NPA hydrolysis in pig cornea, read-out: Km (this study)): 125 ± 13 µM
- NPA hydrolysis rate ([5]; pig RPE): 8.4 ± 1.0 nmol/min/mg
- NPA hydrolysis rate ([5]; pig, all ocular tissues except RPE): around 20 nmol/min/mg
SMILES: CC(=O)Oc1ccc([N+](=O)[O-])cc1 [NPA, 4-Nitrophenyl acetate]
- Km (pig liver CES1): 520 ± 60 µM
- Km [3]: 68 ± 15 µM
- Km (multiple esterases (HLM)): 198 ± 17 µM

SMILES: O=C(O)c1cc[c]([Hg][Cl])cc1 [p-chloromercuribenzoate]
- Inhibition of naphthyl acetate hydrolysis [6]: 10%–30%

SMILES: O=C(O)CN(CCN(CC(=O)O)CC(=O)O)CC(=O)O [EDTA]
- Inhibition of naphthyl acetate hydrolysis [6]: 10%–30%

- FDA hydrolysis rate ([7]; most pig ocular tissues (except retina)): < 0.1 nmol/min/mg
- FDA hydrolysis rate ([7]; pig retina): 0.6 ± 0.1 nmol/min/mg
- Km ([7]; read-out: Km (this study), FDA hydrolysis in pig retina): 16 ± 1.6 µM
- FDA hydrolysis rate ([8]; rabbit RPE, aqueous humor and vitreous): 0.1 to 0.2 nmol/min/mg
- FDA hydrolysis rate ([8]; rabbit choroid, cornea and conjunctiva): > 1.0 nmol/min/mg
- FDA hydrolysis rate ([8]; rabbit retina): 0.5 to 1 nmol/min/mg
- Km ([8]; read-out: Km (this study), FDA hydrolysis in rabbit cornea): 5.5 ± 0.4 µM
SMILES: CC(=O)Oc1ccc2c(c1)Oc1cc(OC(C)=O)ccc1C21OC(=O)c2ccccc21 [FDA, fluorescein diacetate]

SMILES: C[C@@H]1CC[C@@]2(OC1)O[C@H]1[C@@H](O)[C@H]3[C@@H]4CC[C@H]5C[C@@H](O[C@@H]6O[C@H](CO)[C@H](O[C@@H]7O[C@H](CO)[C@@H](O)[C@H](O[C@@H]8OC[C@@H](O)[C@H](O)[C@H]8O)[C@H]7O[C@@H]7O[C@H](CO)[C@H](O)[C@H](O[C@@H]8O[C@H](CO)[C@@H](O)[C@H](O)[C@H]8O)[C@H]7O)[C@H](O)[C@H]6O)[C@H](O)C[C@]5(C)[C@H]4CC[C@]3(C)[C@H]1[C@@H]2C [digitonin]
- inhibition at 200 µM [9]: 15%
- IC50 [1]: 38 µM
- Extent of inhibition of NPA hydrolysis (maximal) ([1]; highest inhibitor concentration 400 μM (PMSF 2.5 mM)): ~40%
- Extent of inhibition of DME hydrolysis [10]: 30%

SMILES: COc1ccc(CCN(C)CCCC(C#N)(c2ccc(OC)c(OC)c2)C(C)C)cc1OC (stereo not drawn) [verapamil]
- Ki (CES2 > CES1 (HLM)): 11.5 ± 1.2 µM
- IC50 (rhCES2; rhCES2, read-out: IC50 (literature)): 7.94 µM
- Ki (rhCES2; rhCES2, read-out: Ki (literature)): 3.84 ± 0.99 µM
- Extent of inhibition of FDA hydrolysis [2]: no inhibition

SMILES: COc1ccc([C@@H]2Sc3ccccc3N(CCN(C)C)C(=O)[C@@H]2OC(C)=O)cc1 [diltiazem]
- Ki (CES2 > CES1 (HLM)): 2.89 ± 0.39 µM

- Phenacetin hydrolysis rate (p-phenetidine formation) [11]: undetectable
- Phenacetin hydrolysis rate (p-phenetidine formation) ([11]; listed as Phenacetin): < 0.1 pmol/min/mg
- Phenacetin hydrolysis rate (p-phenetidine formation) [12]: undetectable
- Phenacetin hydrolysis rate (p-phenetidine formation) ([12]; listed as Phenacetin): < 0.1 pmol/min/mg
SMILES: CCOc1ccc(NC(C)=O)cc1 [phenacetin]

- Procaine hydrolysis rate (PABA formation) ([13]; rabbit aqueous humor and conjunctiva): 0.04 to 0.1 nmol/min/mg
- Procaine hydrolysis rate (PABA formation) ([13]; rabbit cornea, vitreous, RPE and choroid): 0.2 to 0.3 nmol/min/mg
- Procaine hydrolysis rate (PABA formation) ([14]; pig aqueous humor (lowest)): 0.02 nmol/min/mg
- Procaine hydrolysis rate (PABA formation) ([14]; pig retina (highest)): 0.09 nmol/min/mg
SMILES: CCN(CC)CCOC(=O)c1ccc(N)cc1 [procaine]
